Assay results reported in patent US20160345827A1, “TWO-PHOTON MICROSCOPY IMAGING RETINA CELL DAMAGE” (POLGENIX, INC., priority 2014, published 2016).
“Also recorded” adds a separate entry of the source. Read-outs that look alike come from different tables or passages of the source.

Legend:
[1] = system: retinal explant tissue cultures; assay type: cell-based; conditions: 6 h at 37° C, WT retinas; for protection of retinal morphology against atRAL-induced damage: Ret-NH2 30 μM or apocynin 300 μM together with 30 μM atRAL; for prevention of atRAL-induced photoreceptor apoptosis (TUNEL staining): retinylamine 30 μM or apocynin 300 μM together with 30 μM atRAL
Protocol: FIGS. 6(A-B) illustrate images and a plot showing retinal degeneration is induced by atRAL in ex vivo retinal cultures. Retinas were removed from the eyecups of 4-wk-old C57BL/6J mice and cultured for 16 h at 37° C. Then retinas were incubated further with/without 30 μM of atRAL in the presence/absence of experimental drugs for 6 h at 37° C. Vehicle (DMSO), retinylamine (Ret-NH2) at 30 μM, or apocynin (Apo) at 300 μM was applied, together with atRAL. (A) Retinal morphology was examined after incubation with atRAL and with and without drugs. […] (B) TUNEL staining was performed with the ApoTag Peroxidase in Situ Apoptosis Detection Kit. Counter nuclear staining was accomplished with methyl green. […] (D) Retinas were removed from eyecups of 4-wk-old C57BL/6J mice and cultured with or without 30 μM of atRAL for 24 h at 37° C. After incubation, retinas were washed twice with PBS and then examined by TPM. Spectra from photoreceptor outer segments are shown (Left) along with representative magnified images (Right). Spectra from retinas cultured with atRAL featured a broad maximum absorption at 600 nm.
(§1) Eyes were enucleated, washed with a penicillin-streptomycin solution (Sigma), and rinsed with Hank's balanced salt solution (HyClone). Prepared mouse eyecups were flattened by creating retinal flaps. Flattened retinas were transferred onto filter paper and the retina was gently peeled off from the RPE/choroid. All these procedures were performed under a surgical microscope. Each retina on filter paper was placed into a well of a 12-well plate filled with 0.5 mL of DMEM (HyClone) with 10% FBS and incubated for 16 h at 37° C. Retinas then were washed twice with 0.5 mL of fresh DMEM containing 10% FBS and finally incubated again with/without 30 μM of atRAL for 6 h at 37° C. A lactate dehydrogenase (LDH) assay was performed to determine cellular death rates with a LDH activity assay kit (BioVision). The percentage of cytotoxicity was calculated as [(a retina with atRAL—a retina without atRAL)/(lysis control—a retina without atRAL)]×100.
The primary cause of acute retinal degeneration after bright light exposure in Abca4^−/−Rdh8^−/− mice is the delayed clearance of atRAL from photoreceptors. […] Thus, to examine whether retinal tissue lacking RPE cells can display degenerative changes similar to those observed in in vivo, we performed ex vivo culture experiments with retinal explants coincubated with atRAL. Neural retinas were dissected from eyes of 4-wk-old WT mice, and incubated with 30 μM of atRAL in the presence of control vehicle, 30 μM of retinylamine or 300 μM of apocynin for 6 h at 37° C. […] Cell death rates were calculated by measuring lactate dehydrogenase released into tissue culture supernatants from dying cells.

[2] = system: Abca4^−/−Rdh8^−/− (Dko) retinal cultures; experiment: ex vivo Dko retinal cultures incubated with atRAL (morphology, LDH); assay type: cell-based; conditions: 6 h at 37° C; for effect on atRAL-induced cell death rate (LDH assay): Ret-NH2 30 μM or Apo 300 μM together with 30 μM atRAL
Protocol: FIGS. 11(A-B) illustrate images showing retinal degeneration is induced by atRAL in ex vivo Dko retinal cultures. Retinas were removed from the eyecups of 4-wk-old Abca4^−/−Rdh8^−/− (Dko) mice and cultured for 16 h at 37° C. Retinas were then incubated further with/without 30 μM of atRAL in the presence/absence of experimental drugs for 6 h at 37° C. Vehicle (DMSO), retinylamine (Ret-NH2) at 30 μM, or apocynin (Apo) at 300 μM was applied together with atRAL. (A) Retinal morphology was examined after incubation with atRAL. […] Bars indicate SD (n=3). *P<0.05.
as §1

[3] = system: Abca4^−/−Rdh8^−/− mice; experiment: light-induced retinal degeneration in Abca4^−/−Rdh8^−/− mice, TPM and histology at day 7; conditions: for light-induced retinal degeneration (retinal histology): Ret-NH2 1 mg per mouse oral gavage 16 h before, or Apo 1 mg/mouse i.p. 30 min before 10,000 lx light for 60 min, day 7
[4] = system: RPE of Abca4^−/−Rdh8^−/− (DKO) mice; experiment: two-photon trans-pupil imaging of fluorescent granules in RPE after bright light; conditions: 2 mg Ret-NH2 gavage 13 to 16 h prior to 10,000 lux for 60 min; ex vivo imaging 7 and 14 days after light
Excerpt: All animal procedures and experiments were approved by the Institutional Animal Care and Use Committee at Case Western Reserve University and conformed to recommendations of both the American Veterinary Medical Association Panel on Euthanasia and the Association for Research in Vision and Ophthalmology. B6(Cg)-Tyrc-2J/J mice were purchased from The Jackson Laboratory. Abca4^−/−Rdh8^−/− (DKO) and Rpe65^−/− mice were generated and genotyped as previously described. Human opsinGFP fusion, knockin hrhoG/hrhoG mice, expressing human rhodopsinGFP in photoreceptor outer segments were kindly provided by Dr. John H. Wilson (Baylor College of Medicine). […]
After treatment with Ret-NH2 the content of fluorescent retinyl esters increases in the eye as reported previously. […] For quantification of the impact of drug treatment, the same detector settings were used for mice that were treated and not treated with Ret-NH2. […]
The tunable, 690-1050 nm, Chameleon VisionS generated 75 fs laser pulses at 80 MHz pulse repetition frequency. […] In twophoton imaging, the excitation matters most because the emission fluorescence is generated only in the focal spot; therefore, it is critical to achieve a tightly focused excitation beam. […]

[5] = system: retinoid cycle; experiment: retinoid cycle inhibition before light exposure, LC/MS metabolic profile of retina; assay type: in vivo; conditions: pretreatment of Abca4^−/−Rdh8^−/− mice several hours before light exposure
Protocol: At day 3 after light exposure, mouse retinas were dissected and homogenized in 0.3 mL of ice-cold acetonitrile. Samples were vortexed for 30 s followed by centrifugation for 15 min at 16,000×g. Clear supernatants were collected and used directly for LC/MS analyses. Each retinal extract was injected onto a reverse-phase C18 Phenomenex HPLC column (250×4.60 mm; 5 μm) preequilibrated with 5% acetonitrile in water. […] Total ion chromatograms were analyzed with XCMS software available online at the Scripps Center for Metabolomics.
Fluorophores responsible for AF in the retina could be an indicator of global changes in the metabolic profile of this tissue. To evaluate and quantify these changes as well as determine whether they depend on a functional retinoid cycle, we used both genetically altered (Lrat^−/−) and pharmacologically treated (retinylamine) mice with metabolic profiles that were compared with light-exposed and dark-adapted Abca4^−/−Rdh8^−/− mice by using a LC/MS approach. […] To investigate the origin of these light-induced alterations, we first analyzed the metabolic profile of retinal samples isolated from light-exposed lecithin:retinol acyltransferase (LRAT)-deficient mice that cannot produce visual chromophore. […]

[6] = system: RPE of wild type (WT) mice; experiment: two-photon imaging of retinosomes in WT mouse RPE; assay type: in vivo; conditions: WT mice pre-treated with Ret-NH2, white light 5,000 lux before imaging, laser power reduced by 17%
Protocol: To enhance the visibility of retinosomes, WT mice without any drug treatment or treated with Ret-NH2 were exposed to 5,000 lux of white light for 5-30 min, 1 to 3 h before imaging.
To assess the capabilities of our system to characterize the RPE and retina we imaged ex vivo eyes of mice with different genetic backgrounds. The brightest RPE images were obtained in Rpe65^−/− mice in response to 730 nm excitation (FIG. 17a). The brightly fluorescent granules correspond to enlarged retinosomes, which are a characteristic feature of the RPE only in Rpe65^−/− mice due to blockade of 11cisretinol synthesis. […] We also imaged and counted the neuronal nuclei in the ganglion cell layer at 0.6 mm eccentricity and found 2,500 nuclei per mm2 (FIG. 17d), which is smaller than previously reported about 7,000 per mm2 of combined ganglion and displaced amacrine cells in stained retina. This difference arises from: a) nuclei are free of fluorophores, and are only visible as dark structures against brighter cell bodies, which can lead to obstruction of the nuclei by axon bundles; b) not all the cell nuclei were at the same imaging depth; and c) the estimates of the area could be off by 40% because they were determined by comparing measurements of optic disk in en face TPM images to histological sections. […]

[7] = after treatment with Ret-NH2; diminished 7 days after treatment; cited from earlier work

SMILES | protection of retinal morphology against atRAL-induced damage [1] | prevention of atRAL-induced photoreceptor apoptosis (TUNEL staining) ([1]; listed as APO) | effect on atRAL-induced cell death rate (LDH assay) ([2]; Dko retinas) | light-induced retinal degeneration (retinal histology) [3] | retinal morphology (ONL) after incubation with atRAL ([2]; 30 μM atRAL with vehicle, Dko retinas) | retinal cell death (LDH assay) caused by atRAL ([2]; 30 μM atRAL, Dko retinal culture supernatants) | prevention of atRAL-induced photoreceptor apoptosis (TUNEL staining) ([1]; listed as Ret-NH2) | accumulation of fluorescent granules in the RPE [4] | regeneration of visual chromophore in the eye [5] | visibility of retinosomes in RPE [6] | content of fluorescent retinyl esters in the eye [7] | RPE autofluorescence appearance by TPM ([3]; 730 nm and 850 nm excitation, day 7 after light, Ret-NH2 1 mg oral gavage, Apo 1 mg i.p.)
COc1cc(C(C)=O)ccc1O [apocynin] | protected the ONL and INL | protected the ONL and INL | reduced | can be prevented; also recorded: conferred protection |  |  |  |  |  |  |  | 
CC1=C(/C=C/C(C)=C/C=C/C(C)=C/C=O)C(C)(C)CCC1 [atRAL, all-trans-retinaldehyde] |  |  |  |  | markedly disrupted | caused retinal cell death |  |  |  |  |  | 
CC1=C(/C=C/C(C)=C/C=C/C(C)=C/CN)C(C)(C)CCC1 [retinylamine] | protected the ONL and INL |  | reduced | can be prevented; also recorded: conferred protection |  |  | protected the ONL and INL | no deposits; also recorded: protects RPE | markedly reduced | more clearly visible | increases | increased fluorescence of retinosomes
